Measured values as given in patent US9249147B2, “Tyrosine kinase inhibitors” (CHEMBRIDGE CORPORATION, priority 2008, dated 2016).
pIC50: −log10 of the molar value. Converted amounts (≈) assume the structure as drawn. “And” between values parts separate entries of the source, which are not always exact repeats. Equal entries are not always repeated. Where two headings read alike, the source gives them in different places.

Columns and labels:
CYP2C9 = target: T1, CYP2C9 (Homo sapiens, UniProt P11712); assay: CYP2C9 Inhibition (recombinant, MFC substrate); assay type: in vitro ADME
T1 construct: purchased Cerep (contract assay, ADMET Study 13170)
T1 sequence (P11712 whole entry): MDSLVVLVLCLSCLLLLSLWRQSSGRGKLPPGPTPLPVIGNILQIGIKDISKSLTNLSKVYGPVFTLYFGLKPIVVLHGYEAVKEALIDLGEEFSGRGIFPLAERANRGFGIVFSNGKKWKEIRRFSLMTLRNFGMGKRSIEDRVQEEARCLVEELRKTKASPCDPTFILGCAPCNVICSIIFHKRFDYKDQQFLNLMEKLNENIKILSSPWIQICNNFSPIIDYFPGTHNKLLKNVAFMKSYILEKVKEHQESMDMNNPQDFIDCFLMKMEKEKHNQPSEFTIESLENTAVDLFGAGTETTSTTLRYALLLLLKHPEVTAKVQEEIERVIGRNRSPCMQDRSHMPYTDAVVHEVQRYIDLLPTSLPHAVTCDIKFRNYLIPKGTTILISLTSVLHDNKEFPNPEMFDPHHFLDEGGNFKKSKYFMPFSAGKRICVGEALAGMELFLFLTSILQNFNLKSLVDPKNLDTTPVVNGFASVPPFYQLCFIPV

[1] = Maximum Tolerated Dose toxicity study in mice; conditions: both, CD-1, mouse, in vivo, 14 days
Protocol: The toxicity study in mice (Maximum Tolerated Dose) was done with CD-1 strain of mice in groups of 50% male-50% female animals (10 animals per group) at the dosing levels of 2.5, 5, 10, and 20 mg/kg (intarperitoneal) and 5 and 10 mg/kg (peroral). Animals were dosed for 14 days, bid (the actual daily doses were twice those shown) and observed without dosing for additional 14 days. […].

ALK = ALK (Homo sapiens, UniProt Q9UM73); assay: Biochemical ALK inhibition (ADP Hunter, radiometric, Z-lyte); design: purchased DiscoveRx (ADP Hunter kit); Upstate/Millipore; Invitrogen
ALK, sequence (Q9UM73 19-1620): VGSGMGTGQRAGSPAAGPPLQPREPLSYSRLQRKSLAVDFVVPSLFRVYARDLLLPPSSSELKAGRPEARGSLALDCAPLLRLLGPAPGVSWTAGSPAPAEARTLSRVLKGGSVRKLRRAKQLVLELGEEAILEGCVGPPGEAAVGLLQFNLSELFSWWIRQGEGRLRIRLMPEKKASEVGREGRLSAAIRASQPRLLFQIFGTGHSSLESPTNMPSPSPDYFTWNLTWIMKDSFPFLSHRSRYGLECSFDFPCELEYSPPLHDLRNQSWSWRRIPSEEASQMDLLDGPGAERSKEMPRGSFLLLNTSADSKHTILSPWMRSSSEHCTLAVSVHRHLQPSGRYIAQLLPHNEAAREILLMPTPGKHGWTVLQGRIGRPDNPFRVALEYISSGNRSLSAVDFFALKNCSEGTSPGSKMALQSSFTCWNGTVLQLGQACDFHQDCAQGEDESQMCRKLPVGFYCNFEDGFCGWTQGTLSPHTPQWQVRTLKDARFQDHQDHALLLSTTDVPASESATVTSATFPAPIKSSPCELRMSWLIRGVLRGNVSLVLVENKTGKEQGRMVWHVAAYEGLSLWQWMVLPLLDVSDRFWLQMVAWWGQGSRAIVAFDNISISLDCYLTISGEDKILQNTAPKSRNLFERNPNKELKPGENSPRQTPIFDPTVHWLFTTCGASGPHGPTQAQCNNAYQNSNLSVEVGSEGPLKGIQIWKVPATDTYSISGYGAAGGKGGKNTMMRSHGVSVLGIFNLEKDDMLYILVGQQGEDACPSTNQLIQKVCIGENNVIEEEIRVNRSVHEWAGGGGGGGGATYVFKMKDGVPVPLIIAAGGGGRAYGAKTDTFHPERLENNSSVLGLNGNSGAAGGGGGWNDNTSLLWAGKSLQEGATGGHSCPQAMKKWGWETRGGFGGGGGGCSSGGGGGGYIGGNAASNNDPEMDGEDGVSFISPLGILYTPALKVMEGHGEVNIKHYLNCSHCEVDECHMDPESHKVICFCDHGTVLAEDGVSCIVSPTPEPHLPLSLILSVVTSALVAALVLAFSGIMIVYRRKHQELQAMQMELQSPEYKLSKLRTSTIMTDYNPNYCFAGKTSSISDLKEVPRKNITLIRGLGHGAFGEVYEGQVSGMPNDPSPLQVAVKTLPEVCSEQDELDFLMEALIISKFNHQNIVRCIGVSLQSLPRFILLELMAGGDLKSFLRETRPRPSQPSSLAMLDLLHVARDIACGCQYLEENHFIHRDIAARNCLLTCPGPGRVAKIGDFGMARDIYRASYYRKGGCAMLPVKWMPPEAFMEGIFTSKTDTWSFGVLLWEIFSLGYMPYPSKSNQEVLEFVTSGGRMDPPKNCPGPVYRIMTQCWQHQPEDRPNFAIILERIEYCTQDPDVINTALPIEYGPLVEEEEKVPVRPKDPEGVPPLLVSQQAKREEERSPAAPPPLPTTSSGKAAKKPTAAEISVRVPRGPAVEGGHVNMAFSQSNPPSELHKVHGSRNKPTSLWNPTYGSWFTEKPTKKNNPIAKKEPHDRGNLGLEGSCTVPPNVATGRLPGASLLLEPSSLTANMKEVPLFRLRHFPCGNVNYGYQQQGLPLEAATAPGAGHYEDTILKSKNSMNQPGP
Protocol: Compound (II) (also labeled as CRL241 in some of the figures) was tested using several diverse assay technologies utilizing common assay readouts such as ADP generation detection and FRET or radiolabel-based measurement of phosphate incorporation in the substrate.
Biochemical potency of ALK inhibition (IC50) for compound (II) was determined in multiple experiments using a commercial ADP detection assay (ADP Hunter, DiscoveRx), and in radiometric (Upstate/Millipore) or FRET based fluorimetric (Z-lyte, Invitrogen) assays.

[2] = Plasma Protein Binding (Human), equilibrium dialysis; assay type: in vitro ADME; conditions: 1.0E−05 M
CYP2D6 = target: T2, CYP2D6 (Homo sapiens, UniProt P10635); assay: CYP2D6 Inhibition (recombinant, MFC substrate); assay type: in vitro ADME
T2 construct: purchased Cerep (contract assay, ADMET Study 13170)
T2 sequence (P10635 whole entry): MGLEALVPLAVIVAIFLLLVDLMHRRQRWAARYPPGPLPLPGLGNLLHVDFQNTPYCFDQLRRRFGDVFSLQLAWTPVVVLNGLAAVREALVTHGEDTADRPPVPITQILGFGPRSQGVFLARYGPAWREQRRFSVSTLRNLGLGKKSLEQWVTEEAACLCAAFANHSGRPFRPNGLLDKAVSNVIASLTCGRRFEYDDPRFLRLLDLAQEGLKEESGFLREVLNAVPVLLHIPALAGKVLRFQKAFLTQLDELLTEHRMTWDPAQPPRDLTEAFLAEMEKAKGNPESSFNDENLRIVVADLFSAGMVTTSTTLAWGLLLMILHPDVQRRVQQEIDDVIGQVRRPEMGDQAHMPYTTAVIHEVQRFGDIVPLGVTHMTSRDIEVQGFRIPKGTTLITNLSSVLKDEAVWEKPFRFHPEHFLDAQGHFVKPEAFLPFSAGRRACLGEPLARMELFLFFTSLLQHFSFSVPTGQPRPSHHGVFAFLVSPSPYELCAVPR

[3] = Pharmacokinetics study in CD-1 mice (IV, PO); assay type: in vivo; conditions: IV 1 mg/kg, time point 0.35, individual animals A-D
[4] = tested on: non-ALKdependent cell lines; assay: Cell proliferation inhibition, non-ALK-dependent control cell lines; assay type: cell-based; conditions: 12 unrelated cell lines; read-out: Lowest IC50s for non-ALK-dependent cell lines
Text: (§1) Cell proliferation inhibition assays were run for compound (II) with the five target NPM-ALK-dependent ALCL cell lines (Karpas 299, SuDHL-1, JB6, SupM2, UConn) and 12 unrelated cell lines (HEK293, CHO-K1, MCF7, HepG2, H292, H520, H1581, H596, H522, CHA-GO-K1, UMC-11, SK-MES1). […] The pronounced target cell-killing effect is also observed (molecular mechanisms to be determined).

[5] = Aqueous Solubility (PBS, pH 7.4); assay type: physicochemical; conditions: for solubility: pH 7.4, PBS
Fer = target: T3, Fer (Homo sapiens, UniProt P16591); assay: Invitrogen SelectScreen Z-lyte kinase assay, Fer; assay type: biochemical
T3 construct: purchased Invitrogen
T3 sequence (P16591 whole entry): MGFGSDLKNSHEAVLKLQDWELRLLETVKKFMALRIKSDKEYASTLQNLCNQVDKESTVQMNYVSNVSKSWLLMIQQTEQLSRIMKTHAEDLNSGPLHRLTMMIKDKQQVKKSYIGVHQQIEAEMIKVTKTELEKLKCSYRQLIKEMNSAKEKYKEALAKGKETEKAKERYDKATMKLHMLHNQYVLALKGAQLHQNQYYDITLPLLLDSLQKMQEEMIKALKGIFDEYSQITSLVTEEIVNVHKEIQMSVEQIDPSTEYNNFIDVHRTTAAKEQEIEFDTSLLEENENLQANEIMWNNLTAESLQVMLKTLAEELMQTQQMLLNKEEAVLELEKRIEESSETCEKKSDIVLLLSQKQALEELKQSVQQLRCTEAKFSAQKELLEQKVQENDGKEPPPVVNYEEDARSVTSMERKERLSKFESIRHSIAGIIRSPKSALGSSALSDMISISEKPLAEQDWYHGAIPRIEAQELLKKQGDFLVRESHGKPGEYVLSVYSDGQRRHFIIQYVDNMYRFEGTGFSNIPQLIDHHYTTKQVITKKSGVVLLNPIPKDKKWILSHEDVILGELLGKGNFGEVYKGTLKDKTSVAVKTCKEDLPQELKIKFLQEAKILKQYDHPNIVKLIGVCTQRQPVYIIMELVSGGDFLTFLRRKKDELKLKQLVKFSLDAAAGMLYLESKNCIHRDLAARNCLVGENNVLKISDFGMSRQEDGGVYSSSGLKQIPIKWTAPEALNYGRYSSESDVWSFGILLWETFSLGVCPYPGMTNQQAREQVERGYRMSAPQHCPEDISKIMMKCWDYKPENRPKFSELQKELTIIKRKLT

[6] = Acute IV toxicity in mice; assay type: in vivo; conditions: 1 mg/kg intravenously, 24 hour observation
CYP1A2 = target: T4, CYP1A2 (Homo sapiens, UniProt P05177); assay: CYP1A2 Inhibition (recombinant, CEC substrate); assay type: in vitro ADME; conditions: for CYP1A2 % Inhibition of Control Values, 1st/2nd/3rd: listed as CRL241, mean
T4 construct: purchased Cerep (contract assay, ADMET Study 13170)
T4 sequence (P05177 1-516): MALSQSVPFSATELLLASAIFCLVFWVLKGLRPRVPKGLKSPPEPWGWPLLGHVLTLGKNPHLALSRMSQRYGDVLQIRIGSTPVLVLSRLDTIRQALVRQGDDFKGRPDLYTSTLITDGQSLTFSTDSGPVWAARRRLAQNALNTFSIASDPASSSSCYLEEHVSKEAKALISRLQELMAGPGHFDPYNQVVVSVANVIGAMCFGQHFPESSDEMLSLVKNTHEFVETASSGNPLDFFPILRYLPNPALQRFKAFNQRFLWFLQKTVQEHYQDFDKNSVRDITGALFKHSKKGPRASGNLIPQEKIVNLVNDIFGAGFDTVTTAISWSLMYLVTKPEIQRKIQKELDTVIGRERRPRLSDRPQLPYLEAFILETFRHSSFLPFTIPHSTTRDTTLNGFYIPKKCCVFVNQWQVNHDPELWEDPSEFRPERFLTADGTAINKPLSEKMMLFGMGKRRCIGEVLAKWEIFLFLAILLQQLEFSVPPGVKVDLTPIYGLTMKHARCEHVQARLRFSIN

[7] = Caco-2 (TC7) A-B Permeability test (pH 6.5/7.4); conditions: human
[8] = Metabolic Stability (liver micros., human), Cerep Study 13170; assay type: in vitro ADME; conditions: 1.0E−06 M, human liver microsomes
UConn = assay: Cell proliferation inhibition, ALCL line UConn; assay type: cell-based; conditions: Example 4, least sensitive line; read-out: Proliferation IC50 UConn
Text: as §1

## Cc1ccc(F)cc1C[C@H](C)Nc1cc[nH]c(=O)c1-c1nc2cc3c(cc2[nH]1)C(=O)N(CCN1CCCC1)C3 [compound (II)]
CYP2C9; human, recombinant CYP2C9, probe MFC, 1.0E−06 M, Table 5B individual results, read-out: CYP2C9 % Inhibition of Control Values, 1st/2nd/3rd
  activity at 1 µM: 75.8%
CYP2C9; human, recombinant CYP2C9, probe MFC, 5.0E−06 M, Table 5B individual results, read-out: CYP2C9 % Inhibition of Control Values, 1st/2nd/3rd
  activity at 5 µM: 63.8%
CYP2C9; human, recombinant CYP2C9, probe MFC, 1.0E−06 M, read-out: CYP2C9 % Inhibition of Control Values
  inhibition at 1 µM: 20%
CYP2C9; human, recombinant CYP2C9, probe MFC, 5.0E−06 M, read-out: CYP2C9 % Inhibition of Control Values
  inhibition at 5 µM: 41%
CYP2C9; read-out: approximate IC50 CYP2C9
  pIC50: < 5.30
[1]
  Adverse effects at 5 and 10 mg/kg oral: No adverse effects were observed
  Tolerability at 2.5 or 5 mg/kg IP: safe
  Tolerability at 10 and 20 mg/kg IP: exceeded MTD
ALK; ADP Hunter, radiometric and Z-lyte assays, 100 or 200 μM ATP
  pIC50: 7.96 to 8.05
ALK; radiometric assay (Upstate/Millipore)
  Selectivity for ALK versus the related IR and IGF1R: 10-15 fold
[2]; equilibrium dialysis
  % Protein Bound, Mean: 94.7%
[2]; individual data, listed as CRL241
  % Protein Bound, 1st/2nd: 94.6% and 94.7%
CYP2D6; 1 μM and 5 μM
  CYP2D6 inhibition: No inhibition was detected
CYP2D6; human, recombinant CYP2D6, probe MFC, 1.0E−06 M, Table 5B individual results, read-out: CYP2D6 % Inhibition of Control Values, 1st/2nd/3rd
  activity at 1 µM: 101%
CYP2D6; human, recombinant CYP2D6, probe MFC, 5.0E−06 M, Table 5B individual results, read-out: CYP2D6 % Inhibition of Control Values, 1st/2nd/3rd
  activity at 5 µM: 84.9%
CYP2D6; human, recombinant CYP2D6, probe MFC, 1.0E−06 M, read-out: CYP2D6 % Inhibition of Control Values
  inhibition at 1 µM: 2%
CYP2D6; human, recombinant CYP2D6, probe MFC, 5.0E−06 M, read-out: CYP2D6 % Inhibition of Control Values
  inhibition at 5 µM: 16%
[3]
  Plasma Concentration: 100.41 ng/mL and 89.28 ng/mL and 41.61 ng/mL and 64.53 ng/mL
[4]
  pIC50: ~5.60
[5]; pH 7.4, 2.0E−04 M, individual data, listed as CRL241
  Solubility 1st/2nd: 33.81 μm
[5]; pH 7.4, 2.0E−04 M, Tables 9C, 9D, read-out: Solubility Mean
  solubility: 33.9 µM (≈ 17.9 µg/mL)
[5]; pH 7.4, 2.0E−04 M, individual data, read-out: Solubility 1st/2nd
  solubility: 34 µM (≈ 18 µg/mL)
[5]; pH 7.4, test concentration 2.0E−04 M, 24 hours, RT
  solubility at 24 h: 34 µM (≈ 18 µg/mL)
Fer
  pIC50: 7.38
[6]
  Acute IV toxicity: no signs of toxicity were observed
CYP1A2; 1 μM and 5 μM
  CYP1A2 inhibition: No inhibition was detected
CYP1A2; 1.0E−06 M, Table 5B individual results
  CYP1A2 % Inhibition of Control Values, 1st/2nd/3rd: 106.6%
CYP1A2; 5.0E−06 M, Table 5B individual results
  CYP1A2 % Inhibition of Control Values, 1st/2nd/3rd: 90.3%
CYP1A2; recombinant CYP1A2, probe CEC, 1.0E−06 M, Table 5B individual results, read-out: CYP1A2 % Inhibition of Control Values, 1st/2nd/3rd
  activity at 1 µM: 110%
CYP1A2; recombinant CYP1A2, probe CEC, 5.0E−06 M, Table 5B individual results, read-out: CYP1A2 % Inhibition of Control Values, 1st/2nd/3rd
  activity at 5 µM: 92.1%
CYP1A2; recombinant CYP1A2, probe CEC, 1.0E−06 M, read-out: CYP1A2 % Inhibition of Control Values
  inhibition at 1 µM: -7%
CYP1A2; recombinant CYP1A2, probe CEC, 5.0E−06 M, read-out: CYP1A2 % Inhibition of Control Values
  inhibition at 5 µM: 10%
[7]; Caco-2, pH 6.5, Caco-2 (TC7) A-B permeability coefficient, pH 6.5/7.4, 10 μM compound
  Papp A→B at 10 µM: 0.4 ×10⁻⁶ cm/s
[7]; Caco-2, pH 6.5, Caco-2 recovery, pH 6.5/7.4, 10 μM compound
  recovery at 10 µM: 49%
[7]; Caco-2, pH 6.5, Mean Permeability, A-B Permeability (TC7, pH 6.5/7.4), test concentration 1.0E−05 M, mean of n = 2
  Papp A→B at 10 µM: 0.4 ×10⁻⁶ cm/s
[7]; Caco-2, pH 6.5, Mean Recovery, A-B Permeability (TC7, pH 6.5/7.4), test concentration 1.0E−05 M, mean of n = 2
  recovery at 10 µM: 49%
[7]; Caco-2, pH 6.5, Permeability 1st, A-B Permeability (TC7, pH 6.5/7.4), test concentration 1.0E−05 M, 1st replicate
  Papp A→B at 10 µM: 0.41 ×10⁻⁶ cm/s
[7]; Caco-2, pH 6.5, Permeability 2nd, A-B Permeability (TC7, pH 6.5/7.4), test concentration 1.0E−05 M, 2nd replicate
  Papp A→B at 10 µM: 0.44 ×10⁻⁶ cm/s
[7]; Caco-2, pH 6.5, Present Recovery 1st, A-B Permeability (TC7, pH 6.5/7.4), test concentration 1.0E−05 M, 1st replicate
  recovery at 10 µM: 50%
[7]; Caco-2, pH 6.5, Present Recovery 2nd, A-B Permeability (TC7, pH 6.5/7.4), test concentration 1.0E−05 M, 2nd replicate
  recovery at 10 µM: 47%
[8]; 1 hr incubation
  Mean Parent Remaining: 73%
[8]; Table 8B
  Parent Remaining Mean: 73%
[8]; Table 8B, listed as CRL241
  Parent Remaining 1st/2nd: 70.3% and 76.4%
UConn
  pIC50: 7.52
